From PubChem BioAssay (NCI)
Values joined by “and” are separate entries in the source; they are usually repeats but may differ in a detail not shown here. Equal values may be shown once.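 Values below derive from 48-hour exposures of cells grown in 96-well plates, with endpoints linearly interpolated between the two concentrations bracketing the appropriate inhibition level. At the GI50, growth is halved. TGI: concentration producing complete growth inhibition.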

What was measured:
Test in all cases: growth of human tumour cells (NCI), 48 h
COLO 205 colon = system: COLO 205 colon
IGROV1 ovarian = system: IGROV1 ovarian
NCI-H226 lung = system: NCI-H226 lung
NCI-H23 lung = system: NCI-H23 lung
NCI-H460 lung = system: NCI-H460 lung
OVCAR-3 ovarian = system: OVCAR-3 ovarian
OVCAR-4 ovarian = system: OVCAR-4 ovarian
RPMI-8226 leukemia = system: RPMI-8226 leukemia
RXF 393 renal = system: RXF 393 renal
SF-268 CNS = system: SF-268 CNS
SF-539 CNS = system: SF-539 CNS
SK-MEL-28 melanoma = system: SK-MEL-28 melanoma
SNB-75 CNS = system: SNB-75 CNS
SW-620 colon = system: SW-620 colon
TK-10 renal = system: TK-10 renal
U251 CNS = system: U251 CNS
UACC-62 melanoma = system: UACC-62 melanoma
DU-145 prostate = system: DU-145 prostate

CCOC(=O)[C@H]1Nc2c(cccc2[N+](=O)[O-])C2c3ccccc3CC21 (stereo partly drawn)
TGI (COLO 205 colon): > 100 µM | TGI (IGROV1 ovarian): > 100 µM | TGI (NCI-H226 lung): > 100 µM | TGI (NCI-H23 lung): > 100 µM | TGI (NCI-H460 lung): > 100 µM | TGI (OVCAR-3 ovarian): > 100 µM | TGI (OVCAR-4 ovarian): > 100 µM | TGI (RPMI-8226 leukemia): > 100 µM | TGI (RXF 393 renal): 45.8 µM | TGI (SF-268 CNS): > 100 µM | TGI (SF-539 CNS): > 100 µM | TGI (SK-MEL-28 melanoma): > 100 µM | TGI (SNB-75 CNS): > 100 µM | TGI (SW-620 colon): > 100 µM | TGI (TK-10 renal): > 100 µM | TGI (U251 CNS): > 100 µM | TGI (UACC-62 melanoma): > 100 µM

Clc1cccc(C2SCc3nc4ccccc4n32)c1 (stereo not drawn)
TGI (COLO 205 colon): 15.1 µM | TGI (IGROV1 ovarian): 70 µM | TGI (NCI-H226 lung): 33.7 µM | TGI (NCI-H23 lung): 51.4 µM | TGI (NCI-H460 lung): > 100 µM | TGI (OVCAR-3 ovarian): 29.1 µM | TGI (OVCAR-4 ovarian): > 100 µM | TGI (RPMI-8226 leukemia): > 100 µM | TGI (RXF 393 renal): 41.7 µM | TGI (SF-268 CNS): > 100 µM | TGI (SF-539 CNS): 48.2 µM | TGI (SK-MEL-28 melanoma): 46.2 µM | TGI (SNB-75 CNS): 21.3 µM | TGI (SW-620 colon): > 100 µM | TGI (TK-10 renal): 63.9 µM | TGI (U251 CNS): 33 µM | TGI (UACC-62 melanoma): 36.5 µM

Cc1cc(C)c(S(=O)(=O)N(CCCN)OCCCN)c(C)c1
TGI (COLO 205 colon): > 100 µM | TGI (DU-145 prostate): > 100 µM | TGI (IGROV1 ovarian): > 100 µM | TGI (NCI-H226 lung): > 100 µM | TGI (NCI-H23 lung): > 100 µM | TGI (NCI-H460 lung): > 100 µM | TGI (OVCAR-3 ovarian): > 100 µM | TGI (OVCAR-4 ovarian): > 100 µM | TGI (RPMI-8226 leukemia): > 100 µM | TGI (RXF 393 renal): > 100 µM | TGI (SF-268 CNS): > 100 µM | TGI (SF-539 CNS): > 100 µM | TGI (SK-MEL-28 melanoma): > 100 µM | TGI (SNB-75 CNS): > 100 µM | TGI (SW-620 colon): > 100 µM | TGI (TK-10 renal): > 100 µM | TGI (U251 CNS): > 100 µM | TGI (UACC-62 melanoma): > 100 µM

Clc1ccc(-c2nnc(-c3nsc4ccccc34)o2)cc1
TGI (COLO 205 colon): > 100 µM | TGI (IGROV1 ovarian): > 100 µM | TGI (NCI-H23 lung): 74.1 µM | TGI (NCI-H460 lung): > 100 µM | TGI (OVCAR-3 ovarian): 32 µM | TGI (OVCAR-4 ovarian): 34.5 µM | TGI (RPMI-8226 leukemia): > 100 µM | TGI (RXF 393 renal): 99.4 µM | TGI (SF-268 CNS): 66.6 µM | TGI (SF-539 CNS): 48.9 µM | TGI (SK-MEL-28 melanoma): > 100 µM | TGI (SNB-75 CNS): 24.6 µM | TGI (SW-620 colon): > 100 µM | TGI (TK-10 renal): 51.2 µM | TGI (U251 CNS): 33.5 µM | TGI (UACC-62 melanoma): > 100 µM

Fc1ccc(C(OCCN2CC3CC2CN3)c2ccc(F)cc2)cc1 (stereo not drawn)
TGI (COLO 205 colon): 33.5 µM | TGI (DU-145 prostate): > 100 µM | TGI (IGROV1 ovarian): > 100 µM | TGI (NCI-H226 lung): > 100 µM | TGI (NCI-H23 lung): > 100 µM | TGI (NCI-H460 lung): > 100 µM | TGI (OVCAR-3 ovarian): > 100 µM | TGI (OVCAR-4 ovarian): > 100 µM | TGI (RPMI-8226 leukemia): 71.1 µM | TGI (RXF 393 renal): > 100 µM | TGI (SF-268 CNS): > 100 µM | TGI (SF-539 CNS): > 100 µM | TGI (SK-MEL-28 melanoma): 52.3 µM | TGI (SNB-75 CNS): > 100 µM | TGI (SW-620 colon): > 100 µM | TGI (TK-10 renal): > 100 µM | TGI (U251 CNS): > 100 µM | TGI (UACC-62 melanoma): 37.3 µM

CC(=O)Nc1cc(/C=C\C(=O)N2CC(CCl)c3c2cc(N)c2ccccc32)n(C)n1 (stereo not drawn)
TGI (COLO 205 colon): 0.0901 µM | TGI (DU-145 prostate): > 100 µM | TGI (IGROV1 ovarian): > 100 µM | GI50 (NCI-H226 lung): 0.0173 µM | TGI (NCI-H23 lung): 0.0273 µM | TGI (OVCAR-3 ovarian): > 100 µM | GI50 (OVCAR-4 ovarian): 0.0216 µM | TGI (RPMI-8226 leukemia): 0.0577 µM and 0.0242 µM | TGI (RXF 393 renal): > 100 µM | TGI (SF-268 CNS): 0.211 µM | TGI (SF-539 CNS): 0.0214 µM | TGI (SK-MEL-28 melanoma): 0.0382 µM and 0.177 µM | TGI (SNB-75 CNS): 0.0141 µM and 0.0459 µM | TGI (SW-620 colon): > 100 µM | TGI (TK-10 renal): > 100 µM | TGI (U251 CNS): 1.23 µM and 3.23 µM | TGI (UACC-62 melanoma): 0.0284 µM
